How the values were obtained:
[1] = tested on: patient with follicular cyst of the ovary; experiment: Example 4: I2 therapy of a patient with ovarian follicular cysts; format: in vivo, human
Method: The post surgical diagnosis was ruptured follicular cyst of the right ovary. After the surgical procedure the patient continued to experience lower right quadrant abdominal pain. […] The patient was started on I2 therapy at a dose of 6.0 mg/d. The patient was seen again 3 months later (December 3 to March 16). After three months of I2 therapy the patient was free of pain which their […] regarded as unique.
The patient subsequently stopped I2 therapy and approximately 3 years later symptoms of abdominal and breast pain were present. The patient was started again on daily I2 therapy at a dose of 6.0 mg/d. An ultrasound was performed and small follicular cysts in each ovary was noted. […] The patient was continued on daily iodine therapy at a concentration of 3.0 mg/d.

estrogen receptor = experiment: Example 5: immunocytochemical detection of estrogen receptor in vaginal smears after 2 months of daily I2; format: in vivo, Sprague-Dawley rats; settings: for Immunocytochemical Detection of Estrogen Receptor, Scores (mean ± SD), End: after 2 months daily dosing; for Immunocytochemical Detection of Estrogen Receptor, Scores (mean ± SD), End / Immunocytochemical Detection of Estrogen Receptor, Scores (mean ± SD), Baseline: scale +1 to +3, dissolved IoGen tablets; for Immunocytochemical Detection of Estrogen Receptor, Scores (mean ± SD), Baseline: before dosing
Source text: (§1) A total of 24 nulliparous and nonpregnant female Sprague-Dawley rats were received from Charles River Laboratories, Kingston, N.Y. The animals were 10 weeks of age and were examined for signs of disease or injury upon receipt. The animals were housed in stainless steel cages and fed LabDiet™ Certified Rodent Chow 5002 (PMI Feeds, Inc., a subsidiary of Purina Mills, Inc.) ad libitum and were provided fresh filtered tap water ad libitum. Environmental controls were set to maintain a temperature of 18 to 26° C. and a relative humidity of 30 to 70%. A 12-hour light/dark cycle was employed and the room underwent a minimum of ten fresh air changes/hour.
(§2) The animals were allowed to acclimate to laboratory conditions for 2 weeks. No abnormal findings excluding animals from study were noted. The animals were released from conditioning following an examination. Each animal was identified with a unique number that was indicated by ear punch. Cage labels, color-coded by group, identified each cage. The animals were maintained at laboratory conditions for an additional 2 weeks and then randomized into treatment groups by weight.
Tablets of IoGen, a registered trademark of Symbollon Pharmaceuticals Inc. of Framingham Mass. USA were dissolved in distilled water. IoGen tablets are compositions of iodide and iodate in a pharmaceutically acceptable carrier which will form molecular iodine “I2” once in contact with the gastric fluid in the stomach via a diffusion controlled oxidation reduction reaction as taught in U.S. Pat. No. 5,885,592 the disclosure of which is incorporated herein by reference. For this example the IoGen tablets weighted 400 mg and contained the equivalent of 6 mg of I2 in the form of iodide and iodate. The dissolved IoGen tables were used to provide defined daily doses of I2 to rats according to Table 1 below.
After randomization vaginal smears were taken from rats using a cotton swab; the swab was inserted into the vagina and rotated 360° in a clockwise direction, then the swab was smeared onto a glass slide and the smear was fixed in 3.7% formaldehyde with phosphate buffered saline (PBS) for 15 minutes. The slides were washed in PBS for 5 minutes and subsequently immersed in cold methanol and acetone (both at −10° C.) for 3 minutes. After a final rinse in cold PBS for 5 minutes the slides were stored at −20° C. in a solution of PBS-glycerol.
Rats were then dosed daily for the next 2 months according to the schedule in Table 1. […] After 2 months of daily dosing vaginal swabs were taken again and slides were prepared as on day 1 of the dosing regimen.
Immunocytochemical (IC) detection of estrogen receptor (hereafter “ER”) status was accomplished using mouse monoclonal antibody 6F11 from Vector Laboratories (Burlingame, Calif.). A gentle stream of 10 mM citrate buffer (pH 6.0) was passed over each slide for 45 minutes and then a 1/25 dilution of the antibody was incubated with slides at room temperature for 30 minutes. Slides were washed and the Vectastain ABC Kit for Mouse IgG (Vector Laboratories; Burlingame, Calif.) was used to visualize ER. The chromophone 3,3′ diaminobenzidine and peroxidase were used to stain areas of the slides that contained ER. The intensity of staining was scored semi quantitatively on a scale of +1 to +3. Each dosing group contained 6 animals.

[2] = Example 5: daily feed consumption and weight during 2 months of daily dosing; format: in vivo, Sprague-Dawley rats; settings: 2 months daily dosing, .06 to 2 mg I2/kg/day
Source text: as §1, §2
Tablets of IoGen, a registered trademark of Symbollon Pharmaceuticals Inc. of Framingham Mass. USA were dissolved in distilled water. […]

breast cancer cell lines = settings: cited from earlier work

II [I2, molecular iodine]
symptoms on continued therapy ([1]; 3.0 mg/d, seen 9 and 18 months later): remained asymptomatic
abdominal pain ([1]; 6.0 mg/d, after three months of therapy): free of pain
ultrasound of the ovaries ([1]; 6.0 mg/d, approximately 4 months later): ovaries appeared normal
symptoms of pain ([1]; 6.0 mg/d, within a month of reinitiating therapy): no longer present
Immunocytochemical Detection of Estrogen Receptor, Scores (mean ± SD), End (estrogen receptor; Group 2, .06 mg I2/kg/day): 1.167 ± 0.752
Immunocytochemical Detection of Estrogen Receptor, Scores (mean ± SD), Baseline (estrogen receptor; Group 2, .06 mg I2/kg/day): 2.000 ± 0.632
Immunocytochemical Detection of Estrogen Receptor, Scores (mean ± SD), End (estrogen receptor; Group 3, 0.2 mg I2/kg/day): 1.167 ± 0.408
Immunocytochemical Detection of Estrogen Receptor, Scores (mean ± SD), Baseline (estrogen receptor; Group 3, 0.2 mg I2/kg/day): 2.167 ± 0.753
Immunocytochemical Detection of Estrogen Receptor, Scores (mean ± SD), End (estrogen receptor; Group 4, 2 mg I2/kg/day): 0.833 ± 0.408
Immunocytochemical Detection of Estrogen Receptor, Scores (mean ± SD), Baseline (estrogen receptor; Group 4, 2 mg I2/kg/day): 2.333 ± 0.516
effect of daily treatment on ER in the endometrium (estrogen receptor; trend across the 3 dosing groups p<0.001): down regulation of ER
change from baseline to end in ER score, placebo versus all rats that received I2 (estrogen receptor; unpaired t-test, p=0.015): statistically significant difference
daily feed consumption or weight, placebo versus treated groups [2]: no statistically significant differences
effect on estrogen receptor concentration (breast cancer cell lines): reducing the concentration of estrogen receptor

— patent publication US20090017139A1, “Iodine therapy dosing for treating medical conditions” (priority 2007, published 2009)
